Patent US9938273B2 (Plexxikon Inc., priority 2015, dated 2018)

Assays:
FLT3-D835Y = molecular target: T1, FLT3-D835Y (Homo sapiens, UniProt P36888, D835Y); assay: AlphaScreen kinase assay with recombinant enzyme, FLT3-D835Y; type: biochemical; details: 8pt, GMean
T1 construct: purchased Invitrogen PV3967
T1 sequence (P36888 27-993 D835Y): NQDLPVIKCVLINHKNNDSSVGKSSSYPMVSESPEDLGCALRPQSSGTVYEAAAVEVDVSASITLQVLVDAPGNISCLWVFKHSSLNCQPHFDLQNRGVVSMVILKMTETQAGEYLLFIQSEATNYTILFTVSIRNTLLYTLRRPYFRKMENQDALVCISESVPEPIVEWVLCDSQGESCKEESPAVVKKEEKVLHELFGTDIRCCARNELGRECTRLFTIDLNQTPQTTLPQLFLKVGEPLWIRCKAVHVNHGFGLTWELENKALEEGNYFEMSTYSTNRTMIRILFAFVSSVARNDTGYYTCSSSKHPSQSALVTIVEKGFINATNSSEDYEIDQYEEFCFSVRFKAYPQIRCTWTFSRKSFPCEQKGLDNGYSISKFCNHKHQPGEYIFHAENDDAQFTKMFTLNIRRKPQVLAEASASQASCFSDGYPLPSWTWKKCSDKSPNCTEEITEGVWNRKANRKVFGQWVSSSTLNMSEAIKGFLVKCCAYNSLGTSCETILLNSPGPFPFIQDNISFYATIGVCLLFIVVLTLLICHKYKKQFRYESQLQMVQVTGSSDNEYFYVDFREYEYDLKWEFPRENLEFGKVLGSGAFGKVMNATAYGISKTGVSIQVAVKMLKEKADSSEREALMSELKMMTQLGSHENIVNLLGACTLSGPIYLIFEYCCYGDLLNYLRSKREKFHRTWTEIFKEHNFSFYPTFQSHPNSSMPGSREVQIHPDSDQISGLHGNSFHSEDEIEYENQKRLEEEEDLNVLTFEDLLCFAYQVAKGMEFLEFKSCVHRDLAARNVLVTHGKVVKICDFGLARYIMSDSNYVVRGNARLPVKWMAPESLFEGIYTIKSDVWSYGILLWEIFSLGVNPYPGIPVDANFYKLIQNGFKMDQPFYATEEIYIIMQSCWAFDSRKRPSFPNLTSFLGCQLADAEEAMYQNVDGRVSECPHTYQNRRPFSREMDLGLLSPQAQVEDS
How it was run: (§1)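 Tyrosine phosphorylation of biotin-poly(Glu4-Tyr) substrate by recombinant enzyme is detected with PY20 acceptor and streptavidin donor beads after room-temperature incubations of 20 and 60 min. IC50 values were derived at a final 10 μM (FLT3-D835Y, FLT3-ITD) or 100 μM (c-KIT).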

c-KIT = molecular target: T2, c-KIT (Homo sapiens, UniProt P10721); assay: AlphaScreen kinase assay with recombinant enzyme, c-KIT; type: biochemical; details: 100ATP, 8pt, GMean
T2 construct: purchased Millipore 14-559K
T2 sequence (P10721 26-976): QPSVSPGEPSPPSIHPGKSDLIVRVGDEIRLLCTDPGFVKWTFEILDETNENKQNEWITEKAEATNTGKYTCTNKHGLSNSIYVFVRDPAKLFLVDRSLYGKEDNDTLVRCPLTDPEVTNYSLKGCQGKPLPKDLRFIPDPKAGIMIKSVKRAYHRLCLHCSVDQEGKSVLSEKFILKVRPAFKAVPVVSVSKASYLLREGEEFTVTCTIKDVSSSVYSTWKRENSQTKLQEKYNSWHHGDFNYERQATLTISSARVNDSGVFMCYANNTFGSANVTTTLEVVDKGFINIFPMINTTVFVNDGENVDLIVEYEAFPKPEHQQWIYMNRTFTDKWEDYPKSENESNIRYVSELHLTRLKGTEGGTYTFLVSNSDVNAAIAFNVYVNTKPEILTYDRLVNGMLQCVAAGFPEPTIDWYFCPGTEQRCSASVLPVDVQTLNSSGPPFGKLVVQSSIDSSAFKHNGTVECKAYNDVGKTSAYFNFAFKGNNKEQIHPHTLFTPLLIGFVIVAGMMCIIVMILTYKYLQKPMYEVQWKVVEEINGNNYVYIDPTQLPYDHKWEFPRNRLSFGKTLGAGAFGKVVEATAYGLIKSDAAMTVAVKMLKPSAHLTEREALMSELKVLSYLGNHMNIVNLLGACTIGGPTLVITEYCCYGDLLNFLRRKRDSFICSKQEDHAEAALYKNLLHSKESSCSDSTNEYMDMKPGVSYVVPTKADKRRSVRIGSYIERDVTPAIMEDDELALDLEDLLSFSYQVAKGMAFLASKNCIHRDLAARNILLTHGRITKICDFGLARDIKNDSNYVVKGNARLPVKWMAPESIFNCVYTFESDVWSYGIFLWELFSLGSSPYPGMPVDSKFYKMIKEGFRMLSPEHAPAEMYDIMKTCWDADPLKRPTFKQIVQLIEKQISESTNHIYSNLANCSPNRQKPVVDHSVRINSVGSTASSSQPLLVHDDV
How it was run: as §1

[1] = test system: MOLM-14 D835Y cells, FLT3 ITD and FLT3 D835Y; assay: Cell proliferation assay (CellTiter-Glo), MOLM-14 D835Y; type: cell-based; details: Homo sapiens, 72 h, 3d-Growth, GMean
How it was run: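 Three-day growth at 37 °C, 5% CO2 under compound (1 μM top final, 1:3 dilutions, eight points, 0.2% DMSO), read as ATP luminescence by CellTiter-Glo for IC50. Cells: MOLM-14 with FLT3 ITD plus D835Y or F691L, and IL-3-deprived Ba/F3 transfected with FLT3 ITD/D835Y, 1×10^4 per well.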

SMILES	IC50 (FLT3-D835Y)	IC50 (c-KIT)	IC50 [1]
CNC1CCN(C(=O)c2cccc(-c3cnc4[nH]c(-c5ccnc(OC)c5)cc4c3)n2)C1 (stereo not drawn) [Compound P-0060, [6-[2-(2-methoxy-4-pyridyl)-1H-pyrrolo[2,3-b]pyridin-5-yl]-2-pyridyl]-[3-(methylamino)pyrrolidin-1-yl]methanone]	0.0001 to 10 µM	0.0001 to 10 µM	0.0001 to 10 µM
CNC1CCN(C(=O)c2cccc(-c3cnc4[nH]c(-c5cnn(CC(F)(F)F)c5)cc4c3)n2)C1 (stereo not drawn) [Compound P-0061, [3-(methylamino)pyrrolidin-1-yl]-[6-[2-[1-(2,2,2-trifluoroethyl)pyrazol-4-yl]-1H-pyrrolo[2,3-b]pyridin-5-yl]-2-pyridyl]methanone]	0.0001 to 10 µM	10 to 50 µM	0.0001 to 10 µM
CNC1CCN(C(=O)c2cccc(-c3cnc4[nH]c(-c5cccc(C#N)c5)cc4c3)n2)C1 (stereo not drawn) [Compound P-0062, 3-[5-[6-[3-(methylamino)pyrrolidine-1-carbonyl]-2-pyridyl]-1H-pyrrolo[2,3-b]pyridin-2-yl]benzonitrile]	0.0001 to 10 µM	10 to 50 µM	0.0001 to 10 µM
CNC1CCN(S(=O)(=O)c2cccc(-c3cnc4[nH]c(-c5ccccc5)cc4c3)n2)C1 (stereo not drawn) [Compound P-0063, N-methyl-1-[[6-(2-phenyl-1H-pyrrolo[2,3-b]pyridin-5-yl)-2-pyridyl]sulfonyl]pyrrolidin-3-amine]	0.0001 to 10 µM	0.0001 to 10 µM	0.0001 to 10 µM
CN1CCC(NC(=O)c2cccc(-c3cnc4[nH]c(-c5ccccc5)cc4c3)n2)C1 (stereo not drawn) [Compound P-0064, N-(1-methylpyrrolidin-3-yl)-6-(2-phenyl-1H-pyrrolo[2,3-b]pyridin-5-yl)pyridine-2-carboxamide]	0.0001 to 10 µM	0.0001 to 10 µM	0.0001 to 10 µM
CNC1CCN(C(=O)c2cccc(-c3cnc4[nH]c(C5=CCC(C)(C)CC5)cc4c3)n2)C1 (stereo not drawn) [Compound P-0070, [6-[2-(4,4-dimethylcyclohexen-1-yl)-1H-pyrrolo[2,3-b]pyridin-5-yl]-2-pyridyl]-[3-(methylamino)pyrrolidin-1-yl]methanone]	0.0001 to 10 µM	0.0001 to 10 µM	0.0001 to 10 µM
O=S(=O)(NC1CNC1)c1cccc(-c2cnc3[nH]c(-c4ccccc4)cc3c2)n1 [Compound P-0071, N-(azetidin-3-yl)-6-(2-phenyl-1H-pyrrolo[2,3-b]pyridin-5-yl)pyridine-2-sulfonamide]	0.0001 to 10 µM	10 to 50 µM	0.0001 to 10 µM
O=S(=O)(NC1CCNC1)c1cccc(-c2cnc3[nH]c(-c4ccccc4)cc3c2)n1 (stereo not drawn) [Compound P-0072, 6-(2-phenyl-1H-pyrrolo[2,3-b]pyridin-5-yl)-N-pyrrolidin-3-yl-pyridine-2-sulfonamide]	0.0001 to 10 µM	0.0001 to 10 µM	0.0001 to 10 µM
NC1CCN(S(=O)(=O)c2cccc(-c3cnc4[nH]c(-c5ccccc5)cc4c3)n2)CC1 [Compound P-0073, 1-[[6-(2-phenyl-1H-pyrrolo[2,3-b]pyridin-5-yl)-2-pyridyl]sulfonyl]piperidin-4-amine]	0.0001 to 10 µM	0.0001 to 10 µM	0.0001 to 10 µM
O=C(Nc1cccc(-c2cnc3[nH]c(-c4ccccc4)cc3c2)n1)C1CNC1 [Compound P-0084, N-[6-(2-phenyl-1H-pyrrolo[2,3-b]pyridin-5-yl)-2-pyridyl]azetidine-3-carboxamide]	0.0001 to 10 µM	0.0001 to 10 µM	0.0001 to 10 µM
O=C(c1cccc(-c2cnc3[nH]c(-c4ccccc4)cc3c2)n1)N1CCC(NC2CC2)C1 (stereo not drawn) [Compound P-0085, [3-(cyclopropylamino)pyrrolidin-1-yl]-[6-(2-phenyl-1H-pyrrolo[2,3-b]pyridin-5-yl)-2-pyridyl]methanone]	0.0001 to 10 µM	0.0001 to 10 µM	0.0001 to 10 µM
O=S(=O)(NC1CCNCC1)c1cccc(-c2cnc3[nH]c(-c4ccccc4)cc3c2)n1 [Compound P-0086, 6-(2-phenyl-1H-pyrrolo[2,3-b]pyridin-5-yl)-N-(4-piperidyl)pyridine-2-sulfonamide]	0.0001 to 10 µM	0.0001 to 10 µM	0.0001 to 10 µM
NC1CCC(NS(=O)(=O)c2cccc(-c3cnc4[nH]c(-c5ccccc5)cc4c3)n2)CC1 (stereo not drawn) [Compound P-0088, N-(4-aminocyclohexyl)-6-(2-phenyl-1H-pyrrolo[2,3-b]pyridin-5-yl)pyridine-2-sulfonamide]	0.0001 to 10 µM	0.0001 to 10 µM	0.0001 to 10 µM
O=C(c1cccc(-c2cnc3[nH]c(-c4ccccc4)cc3c2)n1)N1CC(F)(F)C1 [Compound P-0090, (3,3-difluoroazetidin-1-yl)-[6-(2-phenyl-1H-pyrrolo[2,3-b]pyridin-5-yl)-2-pyridyl]methanone]	0.0001 to 10 µM	50 to 100 µM	0.0001 to 10 µM
COC1CN(C(=O)c2cccc(-c3cnc4[nH]c(-c5ccccc5)cc4c3)n2)C1 [Compound P-0091, (3-methoxyazetidin-1-yl)-[6-(2-phenyl-1H-pyrrolo[2,3-b]pyridin-5-yl)-2-pyridyl]methanone]	0.0001 to 10 µM	50 to 100 µM	0.0001 to 10 µM
CC(C)(C#N)NC(=O)c1cccc(-c2cnc3[nH]c(-c4ccc(C(F)(F)F)nc4)cc3c2)n1 [Compound P-0201, N-(1-cyano-1-methyl-ethyl)-6-[2-[6-(trifluoromethyl)-3-pyridyl]-1H-pyrrolo[2,3-b]pyridin-5-yl]pyridine-2-carboxamide]	0.0001 to 10 µM	50 to 100 µM	0.0001 to 10 µM
CC(C)(C#N)NC(=O)c1cccc(-c2cnc3[nH]c(-c4cnc(C(F)(F)F)nc4)cc3c2)n1 [Compound P-0204, N-(1-cyano-1-methyl-ethyl)-6-[2-[2-(trifluoromethyl)pyrimidin-5-yl]-1H-pyrrolo[2,3-b]pyridin-5-yl]pyridine-2-carboxamide]	0.0001 to 10 µM	50 to 100 µM	0.0001 to 10 µM
CC(C)(C#N)NC(=O)c1cccc(-c2cnc3[nH]c(-c4ccc(F)nc4)cc3c2)n1 [Compound P-0208, N-(1-cyano-1-methyl-ethyl)-6-[2-(6-fluoro-3-pyridyl)-1H-pyrrolo[2,3-b]pyridin-5-yl]pyridine-2-carboxamide]	0.0001 to 10 µM	50 to 100 µM	0.0001 to 10 µM
CC(C)(C#N)NC(=O)c1cccc(-c2cnc3[nH]c(-c4cnc(C(C)(C)O)nc4)cc3c2)n1 [Compound P-0211, N-(1-cyano-1-methyl-ethyl)-6-[2-[2-(1-hydroxy-1-methyl-ethyl)pyrimidin-5-yl]-1H-pyrrolo[2,3-b]pyridin-5-yl]pyridine-2-carboxamide]	0.0001 to 10 µM	50 to 100 µM	0.0001 to 10 µM
